# Results from ChEMBL document CHEMBL1949518, “Synthesis and biological evaluation of some new 2-pyrazolines bearing benzene sulfonamide moiety as potential anti-inflammatory and anti-cancer agents” (Eur J Med Chem, 2011).
# How the values were obtained:
# Assay type in all cases: functional
# UO-31 = test: Antiproliferative activity against human UO31 cells assessed as cell growth at 10^-5 M after 48 hrs by SRB assay relative to control; settings: UO-31, 48 h, read-out: Activity
# SK-MEL-2 [1] = test: Antiproliferative activity against human SK-MEL-2 cells assessed as cell growth at 10^-5 M after 48 hrs by SRB assay relative to control; settings: SK-MEL-2, 48 h, read-out: Activity
# MDA-MB-435 = test: Anticancer activity against human MDA-MB-435 cells after 48 hrs by SRB assay; settings: MDA-MB-435, 48 h
# SK-MEL-2 [2] = test: Anticancer activity against human SK-MEL-2 cells after 48 hrs by SRB assay; settings: SK-MEL-2, 48 h
# UACC-62 = test: Anticancer activity against human UACC62 cells after 48 hrs by SRB assay; settings: UACC-62, 48 h
# CCRF-CEM = test: Anticancer activity against human CCRF-CEM cells after 48 hrs by SRB assay; settings: for CC50: read-out: LC50 (the source's name)
# MOLT-4 = test: Anticancer activity against human MOLT4 cells after 48 hrs by SRB assay; settings: MOLT-4, 48 h
# A549 = test: Anticancer activity against human A549 cells after 48 hrs by SRB assay; settings: A549, 48 h
# EKVX = test: Anticancer activity against human EKVX cells after 48 hrs by SRB assay
# HOP-62 = test: Anticancer activity against human HOP62 cells after 48 hrs by SRB assay; settings: HOP-62, 48 h
# NCI-H226 = test: Anticancer activity against human NCI-H226 cells after 48 hrs by SRB assay; settings: NCI-H226, 48 h
# NCI-H322M = test: Anticancer activity against human NCI-H322M cells after 48 hrs by SRB assay
# NCI-H460 = test: Anticancer activity against human NCI-H460 cells after 48 hrs by SRB assay; settings: NCI-H460, 48 h; for CC50: read-out: LC50 (the source's name)
# NCI-H522 = test: Anticancer activity against human NCI-H522 cells after 48 hrs by SRB assay; settings: NCI-H522, 48 h
# HCT-15 = test: Anticancer activity against human HCT15 cells after 48 hrs by SRB assay; settings: HCT-15, 48 h
# HT-29 = test: Anticancer activity against human HT-29 cells after 48 hrs by SRB assay; settings: HT-29, 48 h
# SW-620 = test: Anticancer activity against human SW620 cells after 48 hrs by SRB assay; settings: SW-620, 48 h
# SF-295 = test: Anticancer activity against human SF295 cells after 48 hrs by SRB assay; settings: SF-295, 48 h
# SNB-75 = test: Anticancer activity against human SNB75 cells after 48 hrs by SRB assay; settings: SNB-75, 48 h
# U-251 = test: Anticancer activity against human U251 cells after 48 hrs by SRB assay; settings: U-251, 48 h
# IGROV-1 = test: Anticancer activity against human IGROV1 cells after 48 hrs by SRB assay; settings: IGROV-1, 48 h
# OVCAR-3 = test: Anticancer activity against human OVCAR3 cells after 48 hrs by SRB assay; settings: OVCAR-3, 48 h
# OVCAR-5 = test: Anticancer activity against human OVCAR5 cells after 48 hrs by SRB assay; settings: OVCAR-5, 48 h
# SK-OV-3 = test: Anticancer activity against human SKOV3 cells after 48 hrs by SRB assay; settings: SK-OV-3, 48 h; for CC50: read-out: LC50 (the source's name)
# 786-0 = test: Anticancer activity against human 786-0 cells after 48 hrs by SRB assay; settings: 786-0, 48 h; for CC50: read-out: LC50 (the source's name)
# A498 = test: Anticancer activity against human A498 cells after 48 hrs by SRB assay; settings: A498, 48 h; for CC50: read-out: LC50 (the source's name)
# ACHN = test: Anticancer activity against human ACHN cells after 48 hrs by SRB assay; settings: for CC50: read-out: LC50 (the source's name)
# RXF 393 = test: Anticancer activity against human RXF393 cells after 48 hrs by SRB assay; settings: RXF 393, 48 h; for CC50: read-out: LC50 (the source's name)
# PC-3 = test: Anticancer activity against human PC3 cells after 48 hrs by SRB assay; settings: PC-3, 48 h; for CC50: read-out: LC50 (the source's name)
# DU-145 = test: Anticancer activity against human DU145 cells after 48 hrs by SRB assay; settings: DU-145, 48 h; for CC50: read-out: LC50 (the source's name)
# [3] = Anticancer activity against human Hs 578T cells after 48 hrs by SRB assay; settings: for CC50: read-out: LC50 (the source's name)
# BT-549 = test: Anticancer activity against human BT549 cells after 48 hrs by SRB assay; settings: BT-549, 48 h; for CC50: read-out: LC50 (the source's name)
# MDA-MB-468 = test: Anticancer activity against human MDA-MB-468 cells after 48 hrs by SRB assay; settings: MDA-MB-468, 48 h; for CC50: read-out: LC50 (the source's name)
# LOX IMVI = test: Anticancer activity against human LOXIMVI cells after 48 hrs by SRB assay; settings: for CC50: read-out: LC50 (the source's name)
# M14 = test: Anticancer activity against human M14 cells after 48 hrs by SRB assay; settings: M14, 48 h; for CC50: read-out: LC50 (the source's name)
smiles,measurement,setting,value
COc1ccc(C2CC(c3c(O)cc(C)c(Cl)c3C)=NN2c2ccc(S(N)(=O)=O)cc2)cc1 (stereo not drawn),growth at 10 µM,UO-31,93.3%
same,growth at 10 µM,SK-MEL-2 [1],94.3%
Cc1cc(O)c(C2=NN(c3ccc(S(N)(=O)=O)cc3)C(c3ccc(Cl)cc3)C2)c(C)c1Cl (stereo not drawn),GI50,MDA-MB-435,13.4 µM
same,TGI,MDA-MB-435,31 µM
same,GI50,SK-MEL-2 [2],21.4 µM
same,TGI,SK-MEL-2 [2],43.6 µM
same,GI50,UACC-62,9.92 µM
same,TGI,UACC-62,25.8 µM
same,growth at 10 µM,SK-MEL-2 [1],92.5%
same,GI50,CCRF-CEM,15.1 µM
same,TGI,CCRF-CEM,43.5 µM
same,CC50,CCRF-CEM,100 µM
same,GI50,MOLT-4,12.7 µM
same,TGI,MOLT-4,43.2 µM
same,GI50,A549,14.7 µM
same,TGI,A549,43.4 µM
same,GI50,EKVX,13.3 µM
same,TGI,EKVX,36.1 µM
same,GI50,HOP-62,18.6 µM
same,TGI,HOP-62,34.8 µM
same,GI50,NCI-H226,13.4 µM
same,TGI,NCI-H226,29.4 µM
same,GI50,NCI-H322M,18 µM
same,TGI,NCI-H322M,38.9 µM
same,GI50,NCI-H460,12.2 µM
same,TGI,NCI-H460,27.4 µM
same,CC50,NCI-H460,61.4 µM
same,GI50,NCI-H522,18.6 µM
same,TGI,NCI-H522,48.4 µM
same,GI50,HCT-15,14.2 µM
same,TGI,HCT-15,32 µM
same,GI50,HT-29,10.9 µM
same,TGI,HT-29,25.8 µM
same,GI50,SW-620,18.4 µM
same,TGI,SW-620,37.8 µM
same,GI50,SF-295,19.2 µM
same,TGI,SF-295,44.4 µM
same,GI50,SNB-75,17 µM
same,TGI,SNB-75,42.2 µM
same,GI50,U-251,11.8 µM
same,TGI,U-251,26.9 µM
same,GI50,IGROV-1,18.3 µM
same,TGI,IGROV-1,59 µM
same,GI50,OVCAR-3,17.8 µM
same,TGI,OVCAR-3,33.3 µM
same,GI50,OVCAR-5,19.4 µM
same,TGI,OVCAR-5,38.1 µM
same,GI50,SK-OV-3,27.4 µM
same,TGI,SK-OV-3,90.8 µM
same,CC50,SK-OV-3,100 µM
same,GI50,786-0,16.8 µM
same,TGI,786-0,32.2 µM
same,CC50,786-0,62 µM
same,GI50,A498,26.7 µM
same,TGI,A498,43.9 µM
same,CC50,A498,72.2 µM
same,GI50,ACHN,14.9 µM
same,TGI,ACHN,30.6 µM
same,CC50,ACHN,62.9 µM
same,GI50,RXF 393,24.5 µM
same,TGI,RXF 393,59.1 µM
same,CC50,RXF 393,100 µM
same,GI50,PC-3,9.21 µM
same,TGI,PC-3,23.9 µM
same,CC50,PC-3,58.9 µM
same,GI50,DU-145,19.2 µM
same,TGI,DU-145,38.4 µM
same,CC50,DU-145,77 µM
same,GI50,[3],23 µM
same,TGI,[3],62.3 µM
same,CC50,[3],100 µM
same,GI50,BT-549,15.4 µM
same,TGI,BT-549,43.3 µM
same,CC50,BT-549,100 µM
same,GI50,MDA-MB-468,17.1 µM
same,TGI,MDA-MB-468,33.8 µM
same,CC50,MDA-MB-468,66.7 µM
same,GI50,LOX IMVI,14.8 µM
same,TGI,LOX IMVI,32 µM
same,CC50,LOX IMVI,69.2 µM
same,GI50,M14,14 µM
same,TGI,M14,29.4 µM
same,CC50,M14,61.5 µM
Cc1cc(O)c(C2=NN(c3ccc(S(N)(=O)=O)cc3)C(c3ccc(N(C)C)cc3)C2)c(C)c1Cl (stereo not drawn),GI50,MDA-MB-435,3.57 µM
same,LC50 (concentration killing 50% of cells),MDA-MB-435,41.5 µM
same,TGI,MDA-MB-435,14.8 µM
same,GI50,SK-MEL-2 [2],11.9 µM
same,LC50,SK-MEL-2 [2],64 µM
same,TGI,SK-MEL-2 [2],27.6 µM
same,GI50,UACC-62,3.49 µM
same,LC50 (lethal concentration 50%),UACC-62,38.8 µM
same,TGI,UACC-62,15.1 µM
same,growth at 10 µM,UO-31,66.6%
same,GI50,CCRF-CEM,3.64 µM
same,TGI,CCRF-CEM,13.5 µM
same,CC50,CCRF-CEM,44.4 µM
same,GI50,MOLT-4,1.94 µM
same,LC50,MOLT-4,34.9 µM
same,TGI,MOLT-4,7.26 µM
same,GI50,A549,5.91 µM
same,LC50,A549,73.4 µM
same,TGI,A549,22.5 µM
same,GI50,EKVX,1.88 µM
same,LC50 (concentration killing 50% of cells),EKVX,59.3 µM
same,TGI,EKVX,13.6 µM
same,GI50,HOP-62,10.4 µM
same,LC50,HOP-62,52.1 µM
same,TGI,HOP-62,23.3 µM
same,GI50,NCI-H226,10.5 µM
same,LC50,NCI-H226,55.6 µM
same,TGI,NCI-H226,24.1 µM
same,GI50,NCI-H322M,5.01 µM
same,LC50,NCI-H322M,52.9 µM
same,TGI,NCI-H322M,20.2 µM
same,GI50,NCI-H460,2.53 µM
same,TGI,NCI-H460,7.24 µM
same,CC50,NCI-H460,29.8 µM
same,GI50,NCI-H522,6.24 µM
same,LC50,NCI-H522,58.8 µM
same,TGI,NCI-H522,21.6 µM
same,GI50,HCT-15,5.48 µM
same,LC50 (concentration killing 50% of cells),HCT-15,57 µM
same,TGI,HCT-15,20.8 µM
same,GI50,HT-29,3.3 µM
same,LC50,HT-29,37.6 µM
same,TGI,HT-29,11 µM
same,GI50,SW-620,3.72 µM
same,LC50 (concentration killing 50% of cells),SW-620,50.2 µM
same,TGI,SW-620,15.2 µM
same,GI50,SF-295,16 µM
same,LC50,SF-295,62.4 µM
same,TGI,SF-295,31.6 µM
same,GI50,SNB-75,10.9 µM
same,LC50,SNB-75,51.2 µM
same,TGI,SNB-75,23.7 µM
same,GI50,U-251,3.34 µM
same,LC50,U-251,53.7 µM
same,TGI,U-251,13.5 µM
same,GI50,IGROV-1,6.19 µM
same,LC50,IGROV-1,60.2 µM
same,TGI,IGROV-1,22.3 µM
same,GI50,OVCAR-3,4.21 µM
same,LC50 (concentration killing 50% of cells),OVCAR-3,39.6 µM
same,TGI,OVCAR-3,15.7 µM
same,GI50,OVCAR-5,12.3 µM
same,LC50,OVCAR-5,49.7 µM
same,TGI,OVCAR-5,24.7 µM
same,GI50,SK-OV-3,7.75 µM
same,TGI,SK-OV-3,20.6 µM
same,CC50,SK-OV-3,4.54 µM
same,GI50,786-0,4.97 µM
same,TGI,786-0,17.4 µM
same,CC50,786-0,43.4 µM
same,GI50,A498,6.97 µM
same,TGI,A498,19.3 µM
same,CC50,A498,44.2 µM
same,GI50,ACHN,3.7 µM
same,TGI,ACHN,14.4 µM
same,CC50,ACHN,39.5 µM
same,GI50,RXF 393,5.83 µM
same,TGI,RXF 393,21.2 µM
same,CC50,RXF 393,58.9 µM
same,GI50,PC-3,4.44 µM
same,TGI,PC-3,16.8 µM
same,CC50,PC-3,41 µM
same,GI50,DU-145,5.6 µM
same,TGI,DU-145,17.6 µM
same,CC50,DU-145,42.3 µM
same,GI50,[3],3.45 µM
same,TGI,[3],20 µM
same,CC50,[3],91.5 µM
same,GI50,BT-549,1.31 µM
same,TGI,BT-549,27.7 µM
same,CC50,BT-549,58.9 µM
same,GI50,MDA-MB-468,10.7 µM
same,TGI,MDA-MB-468,24.6 µM
same,CC50,MDA-MB-468,56.8 µM
same,GI50,LOX IMVI,2.34 µM
same,TGI,LOX IMVI,6.98 µM
same,CC50,LOX IMVI,32.7 µM
same,GI50,M14,2.62 µM
same,TGI,M14,10.4 µM
same,CC50,M14,32.2 µM
